Test results reported in patent US20020142033A1, “Method for treating incontinence” (priority 1998, published 2002).

Conditions: human, in vivo

SMILES: CCNCC#CCOC(=O)C(O)(c1ccccc1)C1CCCCC1 (stereo not shown) [desethyloxybutynin]
- t½ of DESOXY compared to OXY: shorter t½ life compared to OXY
